# Assay results from US20180296530A1, “METHOD FOR TREATING ATOPIC DERMATITIS” (priority 2015, published 2018).
# Entries after “also recorded” stand apart in the source; their conditions may differ.
# Columns and labels:
# [1] = Clinical trial: adverse events; assay type: in vivo, human; details: oral melatonin 3 mg/d, 4 weeks, children with AD
# Protocol: Visits occurred at the start of the prescreening and on the first and last day of each treatment period, during which AD disease severity was assessed, blood and urine samples were collected, questionnaires evaluating subjective symptoms were filled out, and pill count and adverse events were recorded.
# serum total IgE [2] = assay: Example 6: serum IgE in DNCB-induced AD mouse model; assay type: in vivo, Balb/c mice
# Protocol: (§1) Blood and dorsal skin of each mouse were collected on the last day of the experiment (Day 20) and stored at −80° C. until use. Serum IgE levels were measured using the ImmunoCAP fluorescence enzyme immunoassay (Phadia AB, Sweden) according to the manufacturer's instructions. The dorsal skin mRNA expression of the cytokines IL-4, IL-13, and IL-17 were measured by RT-PCR.
# (§2) The protocol for establishing an AD mouse model in this Example was modified from those described previously. Briefly, referring to FIG. 12, DNCB-induced AD mouse model was prepared by the repeated applications of 20 μL of 1% DNCB in acetone/olive oil (4:1) to the outer and inner surfaces of mouse ears and 100 μL of the same solution to the shaved back skin once on days 1 and 4. Mice of Control group were treated with the identical volumes of vehicle.
# The DNCB-sensitized mice were randomly assigned to one of four groups: DNCB, DNCB+0.1% topical melatonin, DNCB+1% topical melatonin, DNCB+8% topical melatonin. Each group (including Control group) consisted of 3 mice. On days 8 and 11, sensitized mice was challenged by applying 0.2% DNCB to the skin surfaces. For the three groups treated with topical melatonin groups, 0.1 mg of topical melatonin cream was given twice a day from day 1 to day 14. […]
# The serum IgE levels were measured on the last day of the experiment (Day 15) in the same manner as those described in Example 5.
# serum total IgE [3] = assay: Example 5: serum IgE in DNCB-induced AD mouse model; assay type: in vivo, Balb/c mice; details: 5% melatonin treatment compared with the DNCB-stimulated group, p=0.02, Day 20
# Protocol: as §2, with “FIG. 4,” for “FIG. 12,”, “days 1, 2,” for “days 1”, “and 3.” for “and 4.”
# (§3) The DNCB-sensitized mice were randomly assigned to one of three groups: DNCB (Positive control), DNCB+3% topical melatonin (Treatment: low-dose), DNCB+5% topical melatonin (Treatment: high-dose). Each group (including Control group) consisted of 5 mice. From days 9 to 19, sensitized mice were challenged by applying 0.5% DNCB to the skin surfaces. For the two groups treated with topical melatonin groups, 0.3 mg of topical melatonin ointment (3% or 5% melatonin in Vaseline) was given together with DNCB during the challenge period. […]
# as §1
# [4] = system: Patients aged 1 to 18 years with physician-diagnosed AD and sleep problems; assay: Clinical trial: sleep evaluated by actigraphy; assay type: in vivo, human
# Protocol: Patients aged 1 to 18 years with physician-diagnosed AD involving at least 5% of the total body surface area were recruited from the pediatric and dermatology outpatient departments of the National Taiwan University Hospital from Aug. 1, 2012, through Jan. 31, 2013. Follow-up was completed on Apr. 13, 2013. Those patients with sleep problems occurring more than 3 days per week during the previous 3 months were eligible. […] They were then randomized to receive oral melatonin, 3 mg/d (General Nutrition Corporation), or placebo (Standard Chem & Pharm Co, Ltd) at bedtime for 4 weeks. After a 2-week washout period, participants crossed to the alternate treatment. Sleep was evaluated by actigraphy (Mini-Mitter Actiwatch; Philips-Respironics). Each participant wore the actigraphic device on the nondominant wrist for 3 consecutive nights starting 3 nights before each treatment period and for the last 3 nights of each treatment period. In a subgroup of patients who offered consent, polysomnography was performed on the night before the first day and on the last night of each treatment period.
# IL-17 = assay: Example 5: dorsal skin IL-17 mRNA by RT-PCR; assay type: in vivo, Balb/c mice
# Protocol: as §2, with “FIG. 4,” for “FIG. 12,”, “days 1, 2,” for “days 1”, “and 3.” for “and 4.”
# as §3, §1
# IL-4 = assay: Example 5: dorsal skin IL-4 mRNA by RT-PCR; assay type: in vivo, Balb/c mice
# Protocol: as §2, with “FIG. 4,” for “FIG. 12,”, “days 1, 2,” for “days 1”, “and 3.” for “and 4.”
# as §3, §1
# [5] = after oral melatonin 3 mg/d at bedtime for 4 weeks, mean, actigraphy
# [6] = after vs before oral melatonin 3 mg/d, 4 weeks, mean
# [7] = melatonin phase, before treatment, mean, actigraphy
# [8] = melatonin vs placebo, adjusted for age and sex
# [9] = 5% melatonin treatment compared with 3% melatonin treatment
structure (smiles),measurement,setting,value
"COc1ccc2[nH]cc(CCNC(C)=O)c2c1 [Melatonin, melatonin]",adverse events,[1],no adverse event was reported; also recorded: no adverse effect of medication was reported
same,serum total IgE levels,"serum total IgE [2]; 8% topical melatonin treatment, FIG. 15",lowered the total serum IgE most
same,serum total IgE levels,"serum total IgE [2]; after topical melatonin treatment (0.1%, 1%, 8%), dose-response relationship, FIG. 15, Day 15",reduced
same,serum total IgE level,serum total IgE [3],significantly reduced
same,"sleep-onset latency, Wilcoxon signed rank test","[4]; FIG. 2D, almost unchanged in placebo treatment",decreased the sleep-onset latency significantly
same,patients who believed that their sleep had improved,"[4]; after melatonin treatment, 17 of 37 (placebo 13 of 38 [34%])",46%
same,"Fragmentation index, After","[4]; after oral melatonin 3 mg/d at bedtime for 4 weeks, mean",13.6
same,"Mobility in sleep, After",[4]; [5],9.7%
same,"Sleep efficiency, After",[4]; [5],76.7%
same,"Sleep-onset latency, After",[4]; [5],21.6 min
same,"Total sleep time, After",[4]; [5],390.1 min/night
same,"WASO (wake after sleep onset), After",[4]; [5],74.5 min
same,"Wake in sleep interval, After",[4]; [5],15.6%
same,"Fragmentation index, Difference",[4]; [6],−2.4
same,"Mobility in sleep, Difference",[4]; [6],−2.0%
same,"Sleep efficiency, Difference",[4]; [6],2.4%
same,"Sleep-onset latency, Difference",[4]; [6],-23.4 min
same,"Total sleep time, Difference",[4]; [6],10.0 min/night
same,"WASO (wake after sleep onset), Difference",[4]; [6],-9.0 min
same,"Wake in sleep interval, Difference",[4]; [6],−2.1%
same,effect on the other sleep variables measured by actigraphy,[4]; between the melatonin and placebo phases,did not differ significantly
same,decrease of the sleep-onset latency more than placebo,"[4]; linear mixed-effects model, adjusted for age and sex",21.4 min
same,"sleep-onset latency, first treatment period, after","[4]; melatonin group, first treatment period, after oral 3 mg/d for 4 weeks, actigraphy",24.4 min
same,"sleep-onset latency, first treatment period, before","[4]; melatonin group, first treatment period, before treatment, actigraphy",42.8 min
same,"sleep-onset latency, second treatment period, after","[4]; melatonin group, second treatment period, after oral 3 mg/d for 4 weeks, actigraphy",19.1 min
same,"sleep-onset latency, second treatment period, before","[4]; melatonin group, second treatment period, before treatment, actigraphy",46.7 min
same,"Mobility in sleep, Before",[4]; [7],11.6%
same,"Sleep efficiency, Before",[4]; [7],74.4%
same,"Sleep-onset latency, Before",[4]; [7],44.9 min
same,"Total sleep time, Before",[4]; [7],380.1 min/night
same,"WASO (wake after sleep onset), Before",[4]; [7],83.6 min
same,"Wake in sleep interval, Before",[4]; [7],17.6%
same,"Fragmentation index, Before","[4]; melatonin phase, before treatment, mean, greater scores indicate more fragmented sleep",16.0
same,"effect on sleep efficiency, wake time during sleep, or sleep fragmentation","[4]; melatonin treatment compared to placebo, FIG. 3",no significant effect
same,"Fragmentation index, Difference of Treatment Effect From the Linear Mixed-Effects Model, Mean",[4]; [8],−3.2
same,"Mobility in sleep, Difference of Treatment Effect From the Linear Mixed-Effects Model, Mean",[4]; [8],−2.9%
same,"Sleep efficiency, Difference of Treatment Effect From the Linear Mixed-Effects Model, Mean",[4]; [8],2.2%
same,"Sleep-onset latency, Difference of Treatment Effect From the Linear Mixed-Effects Model, Mean",[4]; [8],-21.4 min
same,"Total sleep time, Difference of Treatment Effect From the Linear Mixed-Effects Model, Mean",[4]; [8],24.8 min/night
same,"WASO, Difference of Treatment Effect From the Linear Mixed-Effects Model, Mean",[4]; [8],-8.2 min
same,"Wake in sleep interval, Difference of Treatment Effect From the Linear Mixed-Effects Model, Mean",[4]; [8],−2.3%
same,"shortening of sleep-onset latency, mean",[4]; oral melatonin treatment,23.4 min
same,"shortening of sleep-onset latency, mean percent",[4]; oral melatonin treatment,52.1%
same,"skin mRNA expression of IL-17, dose-response",IL-17; [9],decreased more
same,skin mRNA expression of IL-17,"IL-17; after topical melatonin treatment (3% or 5%), FIG. 11B",decreased
same,"skin mRNA expression of IL-4, dose-response",IL-4; [9],decreased more
same,skin mRNA expression of IL-4,"IL-4; after topical melatonin treatment (3% or 5%), FIG. 11A",decreased
